Assay results taken from patent publication US8580857B2 (priority 2001, dated 2013).
Marks after values point to notes of the source that are not given here.

How the values were obtained:
[1] = test system: human prostate PC3 xenograft tumors; test: Antitumor activity in subcutaneous human prostate PC3 xenograft (tumor size over time); assay type: in vivo, immunodeficient mice
Procedure: The dose of paclitaxel was 15 mg/kg and was given twice weekly for three weeks. […] Example 1 further expounds on FIG. 1.
The relevant tumor model used was human prostate PC3 xenograft implanted subcutaneously in immunodeficient mice. […] The dose of paclitaxel was 15 mg/kg and was given twice weekly for three weeks.

in vivo = settings: mouse
[2] = test system: human prostate PC3 xenograft tumors; test: Non-apoptotic and apoptotic cell counts in histologic sections of residual PC3 tumors; assay type: in vivo, immunodeficient mice; settings: mean ± SD
Procedure: Because a post-treatment residual tumor consisted of apoptotic and non-apoptotic cells, the effects of different treatments on the fractions of non-apoptotic (and therefore not committed to death) and apoptotic (dead or committed) cells were evaluated. Briefly, residual tumors were removed from animals after termination of treatment, and histologic tumor sections were prepared. Tumor sections were examined microscopically under 400× magnification. For each tumor, at least 4 sections were evaluated. Apoptotic cells were identified by their characteristic morphologies, i.e., presence of apoptotic bodies, condensed nuclei and fragmented nuclei.

clinical = assay type: in vivo, human
Text: This method was then verified prospectively in three additional patients (see Example IV).
However, the CL was lower in females compared to males.

cell cycle = settings: constant concentrations of above 50 μM maintained for at least one or two days; cited from earlier work
[3] = test system: acidic and basic fibroblast growth factors (aFGF and bFGF); settings: tumor cells, aFGF and bFGF induced resistance; cited from earlier work
[4] = Prospective verification of the PBPK-based dosing method, plasma concentrations; assay type: in vivo, human; settings: for concentration at 48 h: human, plasma, intravenous
Procedure: Three additional non-small cell lung cancer patients were treated using the dose calculated by the PBPK-based method.

[5] = Literature, cited from earlier work
[6] = Population-based pharmacokinetic (PBPK) analysis of low dose suramin, NONMEM
Text: The first step is to define the appropriate error model for the pharmacokinetic parameters of interest. […] Only the covariates whose elimination results in significant deterioration in model performance are included in the final model (referred to as Population Model).
The PBPK for a one-compartment model depicting plasma concentrations as a function of clearance (CL) and volume of distribution (V) is as follows: • where Cij is the predicted plasma concentration at a particular time time i for a patient j.
Error functions were used to describe the random deviations between model-predicted and observed data for individual pharmacokinetic parameters. Because the objective was to identify the dose, which can be calculated based on CL and V, the analysis focused on these two parameters. […] CLj=CL^typ*(1+ηCL) Eq. 2 Vj=V^typ*(1+ηV) Eq. 3 where ηCL and ηV are random values normally distributed around a mean of zero with a variance of ω^2.
Multiple plasma concentration-time data points were used in PBPK analysis. These time points were 18, 24, 48 and 72 hours after the first treatment, 72 hours and immediately prior to next treatment, and 48 and 72 hours after second and subsequent treatments. The relationship between observed plasma concentrations and PBPK-predicted values (residual variability) is depicted by Equation 4. Yij=Cij*(1+ε1ij) Eq. 4 where Yij and Cij are the observed and predicted concentrations of the j^th individual at the i^th sampling time. ε1ij is the residual errors with a mean of zero and a variance of σ^2. The above equations used an error function in the form of (1+error), which represents the proportional error model where the coefficient of variation is constant and independent of the size of the fixed effect parameter. […] Model Building: Identification of Significant Covariates
The contribution of ten covariates to the inter-individual variability in CL and V was studied. These covariates were age, gender, weight, ideal body weight, height, body surface area (BSA), creatinine concentration, creatinine clearance (CrCL), and serum albumin concentration. Linear regression analysis was used to examine the relationships between covariates and pharmacokinetic parameters in individual patients.
To determine whether a covariate should be incorporated into the model, the log likelihood ratio test was used and the chi-square χ^2 values were calculated by taking the difference in the objective function values of the models, obtained with or without adding the candidate covariate.
CL^typ=(θ1*BSA+θ2*CrCL+θ3)*(1−θ4) Eq. 7 V^typ=θ5*BSA^2+θ6 Eq. 8 […]
To obtain estimates for k^typ, the k values for individual patients were calculated by substituting their corresponding BSA values into Equations 13 and 14.

[7] = Phase I trial, toxicity of low dose suramin with paclitaxel and carboplatin; assay type: in vivo, human
Text: Fifteen patients, with metastases to pleura, pericardium, adrenals, lymph nodes, liver, bone, and/or brain, were enrolled in the phase I trial. This group includes 4 stage IIIb and 11 stage IV patients. […] All patients were evaluable for pharmacokinetics and toxicity. […] Accordingly, it was not necessary to administer replacement steroid therapy to patients who received low dose suramin. This is contrary to the case where replacement steroid therapy was routinely given to patients who received high dose suramin (Dorr and Von Hoff).

[8] = paclitaxel alone 15 mg/kg twice weekly for three weeks
[9] = Patient 1, cycle 1, BSA 1.45, dose 263 mg
[10] = Patient 1, cycles 3 to 6, dose 151-156 mg
[11] = Patient 2, cycle 1, BSA 1.67, dose 210 mg
[12] = Patient 2, cycles 2 to 6, dose 227-257 mg
[13] = Patient 3, cycle 1, BSA 1.83, dose 230 mg
[14] = high dose suramin >2,000 mg per m^2
[15] = Population Model, first 12 patients
[16] = high dose suramin regimen 200 mg/kg then 5 x 130 mg/kg over three weeks, combination: plus paclitaxel 15 mg/kg
[17] = low dose suramin regimen 10 mg/kg twice weekly for three weeks, combination: plus paclitaxel 15 mg/kg

CC(=O)O[C@H]1C(=O)[C@@]2(C)[C@H]([C@H](OC(=O)c3ccccc3)[C@]3(O)C[C@H](OC(=O)[C@H](O)[C@@H](NC(=O)c4ccccc4)c4ccccc4)C(C)=C1C3(C)C)[C@]1(OC(C)=O)CO[C@@H]1C[C@@H]2O [Paclitaxel, paclitaxel]
antitumor effect (tumor growth) ([1]; paclitaxel alone 15 mg/kg twice weekly for three weeks, p<0.05 vs control): suppressed tumor growth
concentration at 5 min (in vivo): ~7000 ng/mL
concentration at 5 h (in vivo): 200 ng/mL
concentration at 6 h (in vivo): < 100 ng/mL
Number of apoptotic cells in a 400x field [2, 8]: 30 ± 17
Number of non-apoptotic cells in a 400x field [2, 8]: 14 ± 10
areas-under-plasma concentration-time curves attained in the first 48 hours after drug administration (clinical; human, in vivo): > 92%

N.N.O=C([O-])C1(C(=O)[O-])CCC1.[Pt+2] [carboplatin]
areas-under-plasma concentration-time curves attained in the first 48 hours after drug administration (clinical; first six patients): > 99%

Cc1ccc(C(=O)Nc2ccc(S(=O)(=O)O)c3cc(S(=O)(=O)O)cc(S(=O)(=O)O)c23)cc1NC(=O)c1cccc(NC(=O)Nc2cccc(C(=O)Nc3cc(C(=O)Nc4ccc(S(=O)(=O)O)c5cc(S(=O)(=O)O)cc(S(=O)(=O)O)c45)ccc3C)c2)c1 [suramin]
effect on cell cycle (cell cycle): induce cell cycle arrest
concentrations of suramin that overcome FGF-mediated resistance to chemotherapy [3]: less than 50 μM
antitumor effect (tumor growth) ([1]; high dose suramin regimen: loading dose 200 mg/kg, then 5 doses of 130 mg/kg over three weeks, combination: plus paclitaxel 15 mg/kg twice weekly for three weeks): slower tumor growth
tumor size, % of the initial tumor size ([1]; low dose suramin regimen: 10 mg/kg twice weekly for three weeks, combination: plus paclitaxel 15 mg/kg twice weekly for three weeks): about 800%
Concentration, Post-paclitaxel [4, 9]: 33.95 µM
Concentration, Pre-dose [4, 9]: 0.00 µM
Concentration, Post-paclitaxel [4, 10]: 21.5 to 26.3 µM
Concentration, Pre-dose [4, 10]: 1.87 to 3.19 µM
Concentration, Post-paclitaxel [4, 11]: 40.39 µM
Concentration, Pre-dose [4, 11]: 0.00 µM
Concentration, Post-paclitaxel [4, 12]: 26.7 to 28.5 µM
Concentration, Pre-dose [4, 12]: 2.65 to 3.81 µM
Concentration, Post-paclitaxel [4, 13]: 36.02 µM
Concentration, Pre-dose [4, 13]: 0.00 µM
maximum concentrations after administration of paclitaxel ([4]; all 13 treatments in three patients, PBPK-calculated dose, two-thirds / one-third split): below 50 μM
concentration at 48 h ([4]; Patient 1, cycle 1, BSA 1.45, dose 263 mg, read-out: Concentration, 48 hours): 13.9 µM
concentration at 48 h ([4]; Patient 1, cycles 3 to 6, dose 151-156 mg, read-out: Concentration, 48 hours): 10.2 to 11.5 µM
concentration at 48 h ([4]; Patient 2, cycle 1, BSA 1.67, dose 210 mg, read-out: Concentration, 48 hours): 15.5 µM
concentration at 48 h ([4]; Patient 2, cycles 2 to 6, dose 227-257 mg, read-out: Concentration, 48 hours): 12.9 to 15.6 µM
concentration at 48 h ([4]; Patient 3, cycle 1, BSA 1.83, dose 230 mg, read-out: Concentration, 48 hours): 19.4 µM
concentration at 48 h ([4]; all 13 treatments in three patients, PBPK-calculated dose, two-thirds / one-third split, read-out: 48-hour plasma concentrations): > 10 µM
Alpha half-life [5, 14]: 5.5 ± 1.7 h
Beta half-life [5, 14]: 98.4 ± 52.8 h
Gamma half-life [5, 14]: 1870 ± 1100 h
Total body clearance [5, 14]: 0.01 ± 0.004 l/hr/m^2
Cumulative AUC ([5]; high dose suramin, total dose >2,000 mg per m^2 per 3-week interval, calculated as 200 μg/ml x 3 weeks from the reference): 101* mg-hr/ml
k^typ (elimination rate constant), Estimate ([6]; Female): 0.0022 h⁻¹
k^typ (elimination rate constant), Estimate ([6]; Male): 0.0026 h⁻¹
θ1 (effect of BSA on CL^typ), Estimate [6, 15]: 26.2 mL/h * m^2
θ5 (effect of BSA^2 on V^typ), Estimate [6, 15]: 5.13 L/m^4
Number of apoptotic cells in a 400x field [2, 16]: 22 ± 9
Number of non-apoptotic cells in a 400x field [2, 16]: 19 ± 9
Number of apoptotic cells in a 400x field [2, 17]: 21 ± 16
Number of non-apoptotic cells in a 400x field [2, 17]: 62 ± 44
half-life (clinical; both sexes, human, in vivo, Alpha half-life): 4.4 h
half-life (clinical; both sexes, human, in vivo, Beta half-life): 264 h
maximum inter-individual variability of clearance (CL) (clinical; both, human, in vivo): 182%
inter-individual variability of clearance (CL) (clinical; female, human, in vivo): 2%
half-life (clinical; female, human, in vivo, Alpha half-life): 4.6 ± 2 h
half-life (clinical; female, human, in vivo, Beta half-life): 336 h
area under the terminal phase as share of the total area-under-curve (clinical; human, in vivo): ~90%
concentration at 48 h (clinical; human, in vivo): > 10 µM
maximum inter-subject variability in the steady state volume of distribution (Vss) (clinical; human, in vivo): 153%
inter-individual variability of clearance (CL) (clinical; male, human, in vivo): 13%
half-life (clinical; male, human, in vivo, Alpha half-life): 4.3 ± 0.6 h
half-life (clinical; male, human, in vivo, Beta half-life): 240 h
dose-limiting toxicity ([7]; low dose suramin with paclitaxel 200 mg/m^2 and carboplatin AUC 6 every three weeks, fifteen patients): No dose-limiting toxicity
adrenal insufficiency ([7]; patients receiving the low dose suramin treatment): no adrenal insufficiency
